In brackets after ≈: the same amount, converted by molar mass. Several values for one entry are separate records, joined by “and”; a condition that tells them apart may be missing. Identical values can stand only once. Counter-ions that a name gives are not always drawn. Like-named read-outs stand apart in the source and are kept apart here.
Key:
[1] = Skin permeation study in side-by-side diffusion cells; format: in vitro ADME, pig
Experimental: Skin permeation studies were carried out using opaque side-by-side diffusion cells with an effective diffusion area of 0.71 cm^2. […] The receptor solution was a 3% w/v cetrimide solution and allowed sink conditions to be maintained. The receptor phase was magnetically stirred at 100 rpm. Dermatomed abdominal pig skin (750 μm) was used. Skin was allowed to hydrate with isotonic saline solution for 1 h before the experiment was started. […] Experiments were performed under complete occlusion. Post-application, at scheduled times (1, 9, 20 and 24 hours), 1 ml samples were taken from the receiver compartment and replaced with the same volume of fresh, temperature-equilibrated receptor fluid. Samples were filtered through 0.45 μm PVDF membrane filters. The amount of endoxifen in the samples was determined by HPLC using the method described above.

[2] = Stability in analysis medium (cetrimide solution, 3%); format: physicochemical; conditions: 3% cetrimide solution
[3] = Solubility studies (saturated solubility, HPLC); format: physicochemical; conditions: for solubility: aqueous with cosolvent or surfactant or cyclodextrin, thermodynamic from solid
Experimental: The saturated solubilities of endoxifen were determined in a mixture of absolute ethanol/water (70:30, w/w) by shaking an excess amount of drug in 1 ml of the co-solvent system for at least 24 hours at room temperature. The concentrations of the saturated solutions were determined by HPLC analysis after appropriate dilution.
The saturated solubilities of clomifene citrate were determined in a series of ethanol/water mixtures (40:60, 50:50, 60:40 and 70:30, w/w) by shaking an excess amount of drug in 0.6 ml of the co-solvent system for at least 24 hours at room temperature. […] The concentrations of the saturated solutions were determined by HPLC analysis after appropriate dilution.
The concentrations of the saturated solutions were determined by HPLC analysis after appropriate dilution.
The saturated solubilities of toremifene were determined in a series of ethanol/water mixtures (40:60, 50:50, 60:40 and 70:30, w/w) by shaking an excess amount of drug in 1 ml of the co-solvent system for at least 24 hours at room temperature. […] The concentrations of the saturated solutions were determined by HPLC analysis after appropriate dilution.

[4] = Solubility studies (saturated solubility, HPLC); format: physicochemical; conditions: 3% w/v cetrimide solution, aqueous with cosolvent or surfactant or cyclodextrin, thermodynamic from solid, room temperature
[5] = ethanol/water 70:30 w/w co-solvent system, room temperature, read-out: Solubility in ethanol:water (70:30 w/w)
[6] = 1 hr, saturated solution in 70:30 w/w ethanol-water, donor 30.46 mg/mL
[7] = 1 h, saturated solution of the drug in 70:30 w/w ethanol-water, — not defined here (Table 2: below LOD)

CCC(=C(c1ccc(O)cc1)c1ccc(OCCN(C)C)cc1)c1ccccc1 [4-OH Tamoxifen, 1-[4-(2-N-dimethylaminoethoxy)phenyl]-1-(4-hydroxyphenyl)-2-phenylbut-1-ene]
cumulative permeation, single cells ([1]; 9 hr, saturated solution in 70:30 v/v ethanol-water, — not defined here (Table 2: below LOD)): 4.1 μg/cm^2 and 3.3 μg/cm^2
cumulative permeation, Average (±SD) ([1]; 20 hr, saturated solution in 70:30 v/v ethanol-water): 8.3 ± 4.7 μg/cm^2
cumulative permeation, Average (±SD) ([1]; 24 hr, saturated solution in 70:30 v/v ethanol-water): 12.5 ± 6.3 μg/cm^2
cumulative permeation, Average (±SD) ([1]; 24 hr, saturated solution in 70:30 v/v ethanol-water, listed as 4-OH tamoxifen): 12.5 μg/cm^2
Stability in analysis medium ([2]; 30 hours): stable

CC/C(=C(\c1ccc(O)cc1)c1ccc(OCCNC)cc1)c1ccccc1 [endoxifen, 4-hydroxy-N-desmethyl-tamoxifen]
solubility [3, 5]: 38700 µg/mL (≈ 104000 µM)
experimental permeation after 24 hours relative to in silico prediction ([1]; 37.29 μg/cm^2 versus about 0.98 μg/cm^2 in 24 hours): 40 times higher
cumulative permeation, Mean (±SD) [1, 6]: — ((—) below the limit of detection (LOD) of 30 ng/ml.)
cumulative permeation, single cells [1, 6]: — ((—) below the limit of detection (LOD) of 30 ng/ml.)
cumulative permeation, Mean (±SD) ([1]; 9 hr, saturated solution in 70:30 w/w ethanol-water, donor 30.46 mg/mL): 0.31 ± 0.36 μg/cm^2
cumulative permeation, Mean (±SD) ([1]; 20 hr, saturated solution in 70:30 w/w ethanol-water, donor 30.46 mg/mL): 17.24 ± 15.13 μg/cm^2
solubility [4]: 6260 ± 280 µg/mL (≈ 16800 µM)
Stability in analysis medium ([2]; 24 hours): stable

CN(C)CCOc1ccc(/C(=C(/CCCl)c2ccccc2)c2ccccc2)cc1 [toremifene]
solubility ([3]; 3% w/v cetrimide solution, room temperature, read-out: Solubility in 3% cetrimide solution): 302 ± 14 µg/mL (≈ 744 µM)
Saturated solubility, Expt 1-3 ([3]; EtOH:Water 40:60 w/w, single experiments): 75.4 µg/mL and 74 µg/mL
Saturated solubility, Expt 1-3 ([3]; EtOH:Water 50:50 w/w, single experiments): 333 µg/mL and 324 µg/mL
Saturated solubility, Expt 1-3 ([3]; EtOH:Water 60:40 w/w, single experiments): 1063 µg/mL and 1009 µg/mL
Saturated solubility, Expt 1-3 ([3]; EtOH:Water 70:30 w/w, single experiments): 2698 µg/mL and 2623 µg/mL
solubility ([3]; ethanol/water 40:60 w/w co-solvent system, EtOH:Water 40:60 w/w, n=3, read-out: Saturated solubility, Average concentration ± SD): 74.7 ± 1.1 µg/mL (≈ 184 µM)
solubility ([3]; ethanol/water 40:60 w/w co-solvent system, EtOH:Water 40:60 w/w, single experiments, read-out: Saturated solubility, Expt 1-3): 74.8 µg/mL (≈ 184 µM)
solubility ([3]; ethanol/water 50:50 w/w co-solvent system, EtOH:Water 50:50 w/w, n=3, read-out: Saturated solubility, Average concentration ± SD): 335 ± 15 µg/mL (≈ 825 µM)
solubility ([3]; ethanol/water 50:50 w/w co-solvent system, EtOH:Water 50:50 w/w, single experiments, read-out: Saturated solubility, Expt 1-3): 350 µg/mL (≈ 862 µM)
solubility ([3]; ethanol/water 60:40 w/w co-solvent system, EtOH:Water 60:40 w/w, n=3, read-out: Saturated solubility, Average concentration ± SD): 1050 ± 37 µg/mL (≈ 2600 µM)
solubility ([3]; ethanol/water 60:40 w/w co-solvent system, EtOH:Water 60:40 w/w, single experiments, read-out: Saturated solubility, Expt 1-3): 1090 µg/mL (≈ 2680 µM)
solubility ([3]; ethanol/water 70:30 w/w co-solvent system, EtOH:Water 70:30 w/w, n=3, read-out: Saturated solubility, Average concentration ± SD): 2730 ± 124 µg/mL (≈ 6720 µM)
solubility ([3]; ethanol/water 70:30 w/w co-solvent system, EtOH:Water 70:30 w/w, single experiments, read-out: Saturated solubility, Expt 1-3): 2860 µg/mL (≈ 7050 µM)
cumulative permeation, Mean (±SD) [1, 7]: 3.38 μg/cm^2
cumulative permeation, single cells [1, 7]: 3.38 μg/cm^2
cumulative permeation, Mean (±SD) ([1]; 9 h, saturated solution of the drug in 70:30 w/w ethanol-water, — not defined here (Table 2: below LOD)): 1.53 ± 2.6 μg/cm^2
cumulative permeation, Mean (±SD) ([1]; 20 h, saturated solution of the drug in 70:30 w/w ethanol-water): 3.89 ± 3.2 μg/cm^2
Stability in analysis medium ([2]; 24 hours): stable

CC/C(=C(/c1ccc(OCCN(C)C)cc1)c1cccc(O)c1)c1ccccc1 [droloxifene citrate, 3-[(1E)-1-[4-[2-(Dimethylamino)ethoxy]phenyl]-2-phenyl-1-butenyl]phenol]
solubility [3, 5]: 47400 ± 1700 µg/mL
cumulative permeation, Mean (±SD) ([1]; 20 h, saturated solution in 70:30 w/w ethanol-water, donor 45.93±[…]): 0.62 ± 0.37 μg/cm^2
solubility ([4]; n=2): 8900 ± 200 µg/mL
Stability in analysis medium ([2]; 24 hours): stable

Source: patent publication US20120010245A1, “TRANSDERMAL PHARMACEUTICAL COMPOSITIONS COMPRISING A SERM” (BESINS HEALTHCARE LUXEMBOURG SARL, priority 2008, published 2012)
